Source: patent publication US20090314217A1, “APPARATUS AND METHOD FOR TREATING NON-HUMAN MAMMALS” (Under The Boardwalk Properties 8 (Proprietary) Limited, priority 2006, published 2009)

Experiment: Blood tests on the horses on the days of the race (Table 1)
Format: in vivo, horse
Conditions: for PCT: day 1 value 0.04; for RBC = red blood cell count: day 1 value 10.2; for WBC = white blood cell count: day 1 value 12.8; for RDWc: day 1 value 22.5; for PDW: day 1 value 32.6; for TBIL = total biliruben: day 1 value 37; for TP = total protein: day 1 value 79; for PLT = platelets: day 1 value 83
Protocol: The apparatus 10 was used in a confidential trial to treat five horses taking part in an endurance race. The five horses were called Moniq, Shamon, Pauli, Viola and Ophelia. During treatment, the average temperature inside the enclosure 22 was between 42° C. and 45° C. and an oxygen flow rate of 1 l/min was supplied to the ozonator 52. During treatment, the average heart-rate for the non-accustomed horses was 42 beats per minute. The superficial skin temperature measured on the neck and the point of the shoulder of the horses was 39° C. in each case.
Table 1 provides information on the blood tests conducted on the five horses, on the days of the race as indicated.

[1] = horse Moniq, race day 2, treated days 1 and 2
[2] = horse Moniq, race day 2, treated days 1 and 2, day 1 value 4.4
[3] = horse Moniq, race day 3, treated days 1 and 2
[4] = horse Moniq, race day 3, treated days 1 and 2, day 1 value 4.4
[5] = horse Pauli, race day 2, pre-treated before race

O=[O+][O-] [ozone]
PCT [1]: 0.07%
MON = monocytes (horse Moniq, race day 2, treated days 1 and 2, day 1 value 0.57): 6e+07 L⁻¹
LYM = lymphocytes (horse Moniq, race day 2, treated days 1 and 2, day 1 value 1.80): 1.96e+09 L⁻¹
CA++ = calcium (horse Moniq, race day 2, treated days 1 and 2, day 1 value 2.98): 2.98 mmol/L
K+ = potassium [2]: 4.3 mmol/L
MON % = monocytes percentage [2]: 0.6%
GLU = glucose (horse Moniq, race day 2, treated days 1 and 2, day 1 value 4.7): 6.1 mmol/L
BUN = blood urea nitrogen (horse Moniq, race day 2, treated days 1 and 2, day 1 value 8): 9 mmol/L
RBC = red blood cell count [1]: 9.21e+12 L⁻¹
GRA = granulocytes (horse Moniq, race day 2, treated days 1 and 2, day 1 value 10.5): 7.55e+09 L⁻¹
GGT = gamma glutamiel transferase (horse Moniq, race day 2, treated days 1 and 2, day 1 value 12): 11 Units/liter
WBC = white blood cell count [1]: 9.56e+09 L⁻¹
LY % = lymphocytes percentage (horse Moniq, race day 2, treated days 1 and 2, day 1 value 14.0): 20.5%
MCH = mean corpuscular hemoglobin (horse Moniq, race day 2, treated days 1 and 2, day 1 value 15.1): 14.7 pg
HB = hemoglobin (horse Moniq, race day 2, treated days 1 and 2, day 1 value 15.5): 13.6 d/deciliter
RDWc [1]: 22.2%
PDW [1]: 37.2
ALB = albumin (horse Moniq, race day 2, treated days 1 and 2, day 1 value 36): 34 gram/liter
TBIL = total biliruben [1]: 58 µmol/L
MCV = mean corpuscular volume (horse Moniq, race day 2, treated days 1 and 2, day 1 value 38): 37 femtoliter
MCHC = mean corpuscular hemoglobin concentration (horse Moniq, race day 2, treated days 1 and 2, day 1 value 40.0): 39.6 gram/deciliter
GLOB = globulin (horse Moniq, race day 2, treated days 1 and 2, day 1 value 43): 40 gram/liter
TP = total protein [1]: 75 gram/liter
GR % = granulocytes percentage (horse Moniq, race day 2, treated days 1 and 2, day 1 value 81.6): 78.9%
PLT = platelets [1]: 1.24e+11 L⁻¹
CRE = creatinine (horse Moniq, race day 2, treated days 1 and 2, day 1 value 96): 106 µmol/L
Na+ = sodium (horse Moniq, race day 2, treated days 1 and 2, day 1 value 139): 137 mmol/L
AST = aspertate amino transferase (horse Moniq, race day 2, treated days 1 and 2, day 1 value 468): 564 Units/liter
CK = creatine kinase (horse Moniq, race day 2, treated days 1 and 2, day 1 value 3873): 706 International Units/liter
PCT [3]: 0.07%
MON = monocytes (horse Moniq, race day 3, treated days 1 and 2, day 1 value 0.57): 6e+07 L⁻¹
LYM = lymphocytes (horse Moniq, race day 3, treated days 1 and 2, day 1 value 1.80): 1.06e+09 L⁻¹
CA++ = calcium (horse Moniq, race day 3, treated days 1 and 2, day 1 value 2.98): 2.98 mmol/L
K+ = potassium [4]: 4.3 mmol/L
MON % = monocytes percentage [4]: 0.6%
GLU = glucose (horse Moniq, race day 3, treated days 1 and 2, day 1 value 4.7): 6.1 mmol/L
BUN = blood urea nitrogen (horse Moniq, race day 3, treated days 1 and 2, day 1 value 8): 9 mmol/L
RBC = red blood cell count [3]: 9.21e+12 L⁻¹
GRA = granulocytes (horse Moniq, race day 3, treated days 1 and 2, day 1 value 10.5): 7.55e+09 L⁻¹
GGT = gamma glutamiel transferase (horse Moniq, race day 3, treated days 1 and 2, day 1 value 12): 11 Units/liter
WBC = white blood cell count [3]: 9.56e+09 L⁻¹
LY % = lymphocytes percentage (horse Moniq, race day 3, treated days 1 and 2, day 1 value 14.0): 20.5%
MCH = mean corpuscular hemoglobin (horse Moniq, race day 3, treated days 1 and 2, day 1 value 15.1): 14.7 pg
HB = hemoglobin (horse Moniq, race day 3, treated days 1 and 2, day 1 value 15.5): 17.0 d/deciliter
RDWc [3]: 22.2%
PDW [3]: 37.2
ALB = albumin (horse Moniq, race day 3, treated days 1 and 2, day 1 value 36): 34 gram/liter
TBIL = total biliruben [3]: 58 µmol/L
MCV = mean corpuscular volume (horse Moniq, race day 3, treated days 1 and 2, day 1 value 38): 37 femtoliter
MCHC = mean corpuscular hemoglobin concentration (horse Moniq, race day 3, treated days 1 and 2, day 1 value 40.0): 39.6 gram/deciliter
GLOB = globulin (horse Moniq, race day 3, treated days 1 and 2, day 1 value 43): 40 gram/liter
TP = total protein [3]: 75 gram/liter
GR % = granulocytes percentage (horse Moniq, race day 3, treated days 1 and 2, day 1 value 81.6): 78.8%
PLT = platelets [3]: 1.27e+11 L⁻¹
CRE = creatinine (horse Moniq, race day 3, treated days 1 and 2, day 1 value 96): 106 µmol/L
Na+ = sodium (horse Moniq, race day 3, treated days 1 and 2, day 1 value 139): 137 mmol/L
AST = aspertate amino transferase (horse Moniq, race day 3, treated days 1 and 2, day 1 value 468): 564 Units/liter
CK = creatine kinase (horse Moniq, race day 3, treated days 1 and 2, day 1 value 3873): 706 International Units/liter
ALB = albumin [5]: 32 gram/liter
AST = aspertate amino transferase [5]: 379 Units/liter
BUN = blood urea nitrogen [5]: 9 mmol/L
CA++ = calcium [5]: 3.13 mmol/L
CK = creatine kinase [5]: 1378 International Units/liter
CRE = creatinine [5]: 129 µmol/L
GGT = gamma glutamiel transferase [5]: 19 Units/liter
GLOB = globulin [5]: 47 gram/liter
GLU = glucose [5]: *6.9 mmol/liter
GR % = granulocytes percentage [5]: 88.0%
GRA = granulocytes [5]: 1.76e+10 L⁻¹
HB = hemoglobin [5]: 16.6 d/deciliter
K+ = potassium [5]: 5.1 mmol/L
LY % = lymphocytes percentage [5]: 7.0%
LYM = lymphocytes [5]: 1.39e+09 L⁻¹
MCH = mean corpuscular hemoglobin [5]: 15.8 pg
MCHC = mean corpuscular hemoglobin concentration [5]: 38.8 gram/deciliter
MCV = mean corpuscular volume [5]: 41 femtoliter
MON % = monocytes percentage [5]: 4.0%
MON = monocytes [5]: 8e+08 L⁻¹
Na+ = sodium [5]: 143 mmol/L
